17 molecules from PubChem BioAssay AID330 (DTP/NCI, 2004) can be followed below.

This assay concerns P388 leukemia ip, CD2F1 mice, survival T/C. In words: NCI In Vivo Anticancer Drug Screen. Data for tumor model P388 Leukemia (intraperitoneal) in CD2F1 (CDF1) mice. The note with it: endpoint: median survival time, higher = longer survival. The procedure, abridged: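 Mice carrying the transplanted tumor received test compound or vehicle. Survival was recorded in each group, and the value is the treated-group measurement divided by that of the vehicle-treated control group.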

Where [1] appears, read: dose: 60.0 mg/kg/injection, schedule: Q01DX005 (ip), vehicle: Klucel (hydroxypropylcellulose) (HPC).
[2] abbreviates: dose: 120.0 mg/kg/injection, schedule: Q01DX005 (ip), vehicle: Klucel (hydroxypropylcellulose) (HPC).
[3] abbreviates: dose: 240.0 mg/kg/injection, schedule: Q01DX005 (ip), vehicle: Klucel (hydroxypropylcellulose) (HPC).
The mark [4] stands for this setting: dose: 25.0 mg/kg/injection, schedule: Q01DX009 (ip), vehicle: saline.
Setting [5] is: dose: 60.0 mg/kg/injection, schedule: Q01DX005 (ip), vehicle: saline.
Where [6] appears, read: dose: 120.0 mg/kg/injection, schedule: Q01DX005 (ip), vehicle: saline.
Where [7] appears, read: dose: 240.0 mg/kg/injection, schedule: Q01DX005 (ip), vehicle: saline.

The structures appear in SMILES notation. Several values for one entry are separate records, joined by “and”; a condition that tells them apart may be missing. Equal values may be shown once. Inconclusive results and toxic doses are left out.

On to `COc1cc2c(cc1OC)C13CC[N+]4(C)CC5=CCOC6CC(=O)N2C1C6C5CC34[O-]` (stereo not drawn), for which the T/C reads like this: under setting [1], 99 % of control; under setting [2], 99 % of control; under setting [3], 111 % of control.
Turning to `Nc1nc2c(c(=O)[nH]1)CNC2=O`, the T/C is, setting by setting: under setting [4], 112 % of control; (dose: 50.0 mg/kg/injection, schedule: Q01DX009 (ip), vehicle: saline) 116 % of control; (dose: 100.0 mg/kg/injection, schedule: Q01DX009 (ip), vehicle: saline) 113 % of control.
Regarding `COc1cccc2c1OC(=O)NC2O` (stereo not drawn), the T/C runs as follows: (dose: 25.0 mg/kg/injection, schedule: Q01DX005 (ip), vehicle: distilled water + Tween-80) 103 % of control; (dose: 50.0 mg/kg/injection, schedule: Q01DX005 (ip), vehicle: distilled water + Tween-80) 107 % of control; (dose: 50.0 mg/kg/injection, schedule: Q01DX005 (ip), vehicle: saline with Tween-80) 102 % of control; (dose: 100.0 mg/kg/injection, schedule: Q01DX005 (ip), vehicle: distilled water + Tween-80) 121 % of control; (dose: 100.0 mg/kg/injection, schedule: Q01DX005 (ip), vehicle: saline with Tween-80) 122 % of control; (dose: 200.0 mg/kg/injection, schedule: Q01DX005 (ip), vehicle: distilled water + Tween-80) 110 % of control. In addition, the T/C (dose: 200.0 mg/kg/injection, schedule: Q01DX005 (ip), vehicle: saline with Tween-80) is 112 % of control.
As for `CCCCCCCCCCCCCCCc1cc(O)c(CC=C(C)C)c(=O)o1` (tested in a mixture with another compound), the T/C (dose: 82.5 mg/kg/injection, schedule: Q01DX005 (ip), vehicle: Klucel (hydroxypropylcellulose) (HPC)) is 98 % of control; the T/C (dose: 165.0 mg/kg/injection, schedule: Q01DX005 (ip), vehicle: Klucel (hydroxypropylcellulose) (HPC)) is 97 % of control; the T/C (dose: 330.0 mg/kg/injection, schedule: Q01DX005 (ip), vehicle: Klucel (hydroxypropylcellulose) (HPC)) is 105 % of control.
As to `COc1cccc(C2CC(C)(O)Oc3cc4c(cc32)OCO4)c1O` (stereo not drawn), the T/C under setting [1] is 100 % of control, the T/C under setting [2] was 100 % of control and the T/C under setting [3] was 92 % of control.
In the case of `COc1ccc2ccc3c(c2c1)C(=O)C(CC(N)=O)C3` (stereo not drawn), the T/C reads like this: (dose: 12.5 mg/kg/injection, schedule: Q01DX009 (ip), vehicle: distilled water + Tween-80) 97 % of control; (dose: 25.0 mg/kg/injection, schedule: Q01DX009 (ip), vehicle: distilled water + Tween-80) 93 % of control; (dose: 50.0 mg/kg/injection, schedule: Q01DX009 (ip), vehicle: distilled water + Tween-80) 92 % of control; (dose: 200.0 mg/kg/injection, schedule: Q01DX009 (ip), vehicle: distilled water + Tween-80) 93 % of control.
Regarding `C[C@@H]1C[C@H](C)OC(CCl)O1` (stereo partly drawn), the T/C under setting [5] is 100 % of control, the T/C under setting [6] was 102 % of control and the T/C under setting [7] is 98 % of control.
Consider `COc1cccc2c1C(=O)c1c(O)c3c(c(O)c1C2=O)C[C@@](O)(C(C)=O)C[C@@H]3OC1CC(N=CCCCC=NC2CC(O[C@H]3C[C@](O)(C(C)=O)Cc4c(O)c5c(c(O)c43)C(=O)c3c(OC)cccc3C5=O)OC(C)C2O)C(O)C(C)O1` (stereo partly drawn), for which the T/C is, setting by setting: (dose: 0.5 mg/kg/injection, schedule: Q04DX003 (ip), vehicle: distilled water + Tween-80) 104 % of control; (dose: 1.0 mg/kg/injection, schedule: Q04DX003 (ip), vehicle: distilled water + Tween-80) 110 % of control; (dose: 2.0 mg/kg/injection, schedule: Q04DX003 (ip), vehicle: distilled water + Tween-80) 123 % of control; (dose: 16.0 mg/kg/injection, schedule: Q04DX003 (ip), vehicle: distilled water + Tween-80) 122 % of control.
As to `CCCCC(CC)COC(OCC(CC)CCCC)C(OCC(CC)CCCC)OCC(CC)CCCC` (stereo not drawn), the T/C is, setting by setting: (dose: 100.0 mg/kg/injection, schedule: Q04DX003 (ip), vehicle: saline with Tween-80) 100 % of control; (dose: 200.0 mg/kg/injection, schedule: Q04DX003 (ip), vehicle: saline with Tween-80) 100 % of control; (dose: 400.0 mg/kg/injection, schedule: Q04DX003 (ip), vehicle: saline with Tween-80) 100 % of control.
`CS(=O)(=O)OC1C(COC(=O)c2ccccc2)OC(n2ccc(=O)[nH]c2=O)C1O` (stereo not drawn): the T/C by setting is: (dose: 50.0 mg/kg/injection, schedule: Q01DX005 (ip), vehicle: saline) 100 % of control; (dose: 100.0 mg/kg/injection, schedule: Q01DX005 (ip), vehicle: saline) 101 % of control; (dose: 200.0 mg/kg/injection, schedule: Q01DX005 (ip), vehicle: saline) 101 % of control.
With `C=CC(=NC(C)(C)C)Nc1ccccc1Cl`, the T/C (dose: 3.12 mg/kg/injection, schedule: Q01DX009 (ip), vehicle: Klucel (hydroxypropylcellulose) (HPC)) was 104 % of control; the T/C (dose: 6.25 mg/kg/injection, schedule: Q01DX009 (ip), vehicle: Klucel (hydroxypropylcellulose) (HPC)) is 103 % of control; the T/C (dose: 6.25 mg/kg/injection, schedule: Q01DX009 (ip), vehicle: saline) is 116 % of control; the T/C (dose: 12.5 mg/kg/injection, schedule: Q01DX009 (ip), vehicle: Klucel (hydroxypropylcellulose) (HPC)) was 102 % of control; the T/C (dose: 12.5 mg/kg/injection, schedule: Q01DX009 (ip), vehicle: saline) was 118 % of control and 93 % of control; the T/C under setting [4] is 111 % of control.
`Cn1nnc(-c2ccc([N+](=O)[O-])cc2)n1`: the T/C runs as follows: (dose: 100.0 mg/kg/injection, schedule: Q04DX003 (ip), vehicle: Klucel (hydroxypropylcellulose) (HPC)) 105 % of control; (dose: 200.0 mg/kg/injection, schedule: Q04DX003 (ip), vehicle: Klucel (hydroxypropylcellulose) (HPC)) 103 % of control; (dose: 400.0 mg/kg/injection, schedule: Q04DX003 (ip), vehicle: Klucel (hydroxypropylcellulose) (HPC)) 103 % of control.
Consider `COc1cc2c(c(OC)c1OC)-c1ccc(OC)c(=O)cc1C(N(C)C(=O)CO)CC2` (stereo not drawn), for which the T/C by setting is: (dose: 0.16 mg/kg/injection, schedule: Q01DX009 (ip), vehicle: Klucel (hydroxypropylcellulose) (HPC)) 120 % of control and 123 % of control; (dose: 0.31 mg/kg/injection, schedule: Q01DX009 (ip), vehicle: Klucel (hydroxypropylcellulose) (HPC)) 155 % of control; (dose: 0.62 mg/kg/injection, schedule: Q01DX009 (ip), vehicle: Klucel (hydroxypropylcellulose) (HPC)) 166 % of control; (dose: 0.62 mg/kg/injection, schedule: Q01DX009 (ip), vehicle: saline) 189 % of control; (dose: 1.25 mg/kg/injection, schedule: Q01DX009 (ip), vehicle: Klucel (hydroxypropylcellulose) (HPC)) 112 % of control and 212 % of control.
For `O=C1/C(=C/c2ccc(Cl)cc2)SC(=S)N1C1CC1`, the T/C was 91 % of control (dose: 6.25 mg/kg/injection, schedule: Q01DX005 (ip), vehicle: Klucel (hydroxypropylcellulose) (HPC)); 96 % of control (dose: 12.5 mg/kg/injection, schedule: Q01DX005 (ip), vehicle: Klucel (hydroxypropylcellulose) (HPC)); 95 % of control (dose: 25.0 mg/kg/injection, schedule: Q01DX005 (ip), vehicle: Klucel (hydroxypropylcellulose) (HPC)); 89 % of control (dose: 50.0 mg/kg/injection, schedule: Q01DX005 (ip), vehicle: Klucel (hydroxypropylcellulose) (HPC)).
In the case of `C/C=C1/C[N+]2(C)CCc3c([nH]c4ccccc34)C2CC1C(CO)C(=O)OC` (stereo not drawn), the T/C is 96 % of control (dose: 12.5 mg/kg/injection, schedule: Q01DX009 (ip), vehicle: saline with Tween-80); 104 % of control (dose: 25.0 mg/kg/injection, schedule: Q01DX009 (ip), vehicle: saline with Tween-80); 98 % of control (dose: 50.0 mg/kg/injection, schedule: Q01DX009 (ip), vehicle: saline with Tween-80).
Take `O=C(COc1ccc(Cl)cc1)OCCN1CCCCCC1`: the T/C runs as follows: under setting [5], 109 % of control; under setting [6], 110 % of control; under setting [7], 100 % of control.
Take `Cc1ccc(S(=O)(=O)CC2(Br)Cc3ccccc3C2=O)cc1` (stereo not drawn): the T/C is 103 % of control (dose: 100.0 mg/kg/injection, schedule: Q04DX003 (ip), vehicle: saline); 100 % of control (dose: 200.0 mg/kg/injection, schedule: Q04DX003 (ip), vehicle: saline); 100 % of control (dose: 400.0 mg/kg/injection, schedule: Q04DX003 (ip), vehicle: saline).
